Measured values published in US20260256792A1, “TREATMENT OF CHRONIC SPONTANEOUS URTICARIA BY ADMINISTERING (R)-2-[3-[4-AMINO-3-(2-FLUORO-4-PHENOXY-PHENYL)PYRAZOLO[3,4-D]PYRIMIDIN-1-YL]PIPERIDINE-1-CARBONYL]-4-METHYL-4-[4-(OXETAN-3-YL)PIPERAZIN-1-YL]PENT-2-ENENITRILE” (priority 2023, published 2026).

Tested on: moderate-to-severe chronic spontaneous urticaria (CSU)
Experiment: Phase 2 CSU study: itch severity score over 7 days (ISS7)
Format: in vivo, human
Text: The study comprises a 12 week, randomized, double-blind, placebo-controlled, multi-center, dose-ranging efficacy and safety phase, followed by a 40 week open label extension (OLE) phase (see FIG. 1). The study consists of three phases and an optional OLE phase. […] Clinically, CSU is characterized by the spontaneous and recurrent appearance of pruritic hives. The proposed primary endpoints were the UAS7 at Week 12 in EU and EU reference countries and the ISS7 in the US. Regardless of where a participant was from, all assessments were the same. The UAS7 score is a composite score containing both the HSS7 and the ISS7. This allowed a global assessment of the two key components of urticaria: hives and itch. […] The UAS is a validated PRO measure. […] The daily UAS scores range from 0 to 6 point/day. […] Patients were to complete the UAS using the e-diary. […] The following secondary endpoints were to be analyzed using the same approach as for the primary endpoint: • Change from baseline in UAS7 at Week 4 • Change from baseline in UAS7 at Week 12 (for US and US reference countries) • Change from baseline in ISS7 at Week 12 (except US and US reference countries) • Change from baseline in HSS7 at Week 12

[1] = Week 4, 400 mg TID, Prior Omalizumab Use
[2] = Week 5, 400 mg BID, Omalizumab-Naïve
[3] = Week 5, 400 mg BID, Prior Omalizumab Use
[4] = Week 5, 400 mg QPM, Omalizumab-Naïve
[5] = Week 5, 400 mg QPM, Prior Omalizumab Use
[6] = Week 5, 400 mg TID, Omalizumab-Naïve
[7] = Week 5, 400 mg TID, Prior Omalizumab Use
[8] = Week 6, 400 mg BID, Omalizumab-Naïve
[9] = Week 6, 400 mg BID, Prior Omalizumab Use
[10] = Week 6, 400 mg QPM, Omalizumab-Naïve
[11] = Week 6, 400 mg QPM, Prior Omalizumab Use
[12] = Week 6, 400 mg TID, Omalizumab-Naïve
[13] = Week 6, 400 mg TID, Prior Omalizumab Use
[14] = Week 7, 400 mg BID, Omalizumab-Naïve
[15] = Week 7, 400 mg BID, Prior Omalizumab Use
[16] = Week 7, 400 mg QPM, Omalizumab-Naïve
[17] = Week 7, 400 mg QPM, Prior Omalizumab Use

Structure (SMILES): CC(C)(C=C(C#N)C(=O)N1CCC[C@@H](n2nc(-c3ccc(Oc4ccccc4)cc3F)c3c(N)ncnc32)C1)N1CCN(C2COC2)CC1 [rilzabrutinib, (R)-2-[3-[4-amino-3-(2-fluoro-4-phenoxy-phenyl)pyrazolo[3,4-d]pyrimidin-1-yl]piperidine-1-carbonyl]-4-methyl-4-[4-(oxetan-3-yl)piperazin-1-yl]pent-2-enenitrile]
- ISS7 Mean (SD) [1]: 6.17 (6.41)
- ISS7 Median [1]: 5.42
- ISS7 Percent change from baseline Mean (SD) [1]: −61.65 (32.63) %
- ISS7 Percent change from baseline Median [1]: −62.50%
- ISS7 Change from baseline Mean (SD) [2]: −6.55 (6.17)
- ISS7 Change from baseline Median [2]: −6.42
- ISS7 Mean (SD) [2]: 8.88 (6.81)
- ISS7 Median [2]: 8.50
- ISS7 Percent change from baseline Mean (SD) [2]: −43.73 (41.21) %
- ISS7 Percent change from baseline Median [2]: −39.85%
- ISS7 Change from baseline Median [3]: −14.50
- ISS7 Mean (SD) [3]: 5.50 (8.54)
- ISS7 Median [3]: 2.00
- ISS7 Percent change from baseline Mean (SD) [3]: −68.33 (47.26) %
- ISS7 Percent change from baseline Median [3]: −86.67%
- ISS7 Change from baseline Mean (SD) [4]: −5.53 (4.98)
- ISS7 Change from baseline Median [4]: −4.10
- ISS7 Mean (SD) [4]: 11.00 (4.68)
- ISS7 Percent change from baseline Mean (SD) [4]: −31.93 (26.18) %
- ISS7 Percent change from baseline Median [4]: −30.00%
- ISS7 Change from baseline Mean (SD) [5]: −10.00 (NC)
- ISS7 Change from baseline Median [5]: −10.00
- ISS7 Mean (SD) [5]: 11.00 (NC)
- ISS7 Percent change from baseline Mean (SD) [5]: −47.62 (NC) %
- ISS7 Percent change from baseline Median [5]: −47.62%
- ISS7 Change from baseline Mean (SD) [6]: −9.18 (6.46)
- ISS7 Change from baseline Median [6]: −9.00
- ISS7 Mean (SD) [6]: 6.92 (5.87)
- ISS7 Median [6]: 7.00
- ISS7 Percent change from baseline Mean (SD) [6]: −55.68 (34.88) %
- ISS7 Percent change from baseline Median [6]: −56.25%
- ISS7 Mean (SD) [7]: 5.50 (6.53)
- ISS7 Median [7]: 3.00
- ISS7 Percent change from baseline Mean (SD) [7]: −66.60 (31.51) %
- ISS7 Percent change from baseline Median [7]: −72.43%
- ISS7 Change from baseline Mean (SD) [8]: −6.58 (5.90)
- ISS7 Change from baseline Median [8]: −5.75
- ISS7 Mean (SD) [8]: 8.85 (6.40)
- ISS7 Percent change from baseline Mean (SD) [8]: −42.90 (39.02) %
- ISS7 Percent change from baseline Median [8]: −33.40%
- ISS7 Change from baseline Mean (SD) [9]: −10.13 (9.42)
- ISS7 Change from baseline Median [9]: −14.00
- ISS7 Mean (SD) [9]: 7.07 (8.32)
- ISS7 Median [9]: 2.33
- ISS7 Percent change from baseline Mean (SD) [9]: −56.44 (51.68) %
- ISS7 Change from baseline Mean (SD) [10]: −6.59 (5.45)
- ISS7 Change from baseline Median [10]: −5.00
- ISS7 Mean (SD) [10]: 10.27 (5.26)
- ISS7 Percent change from baseline Mean (SD) [10]: −38.20 (29.52) %
- ISS7 Percent change from baseline Median [10]: −31.67%
- ISS7 Change from baseline Mean (SD) [11]: −12.00 (NC)
- ISS7 Change from baseline Median [11]: −12.00
- ISS7 Mean (SD) [11]: 9.00 (NC)
- ISS7 Median [11]: 9.00
- ISS7 Percent change from baseline Mean (SD) [11]: −57.14 (NC) %
- ISS7 Percent change from baseline Median [11]: −57.14%
- ISS7 Change from baseline Mean (SD) [12]: −8.71 (6.32)
- ISS7 Change from baseline Median [12]: −7.50
- ISS7 Mean (SD) [12]: 7.32 (6.05)
- ISS7 Median [12]: 7.00
- ISS7 Percent change from baseline Mean (SD) [12]: −53.59 (35.59) %
- ISS7 Percent change from baseline Median [12]: −50.00%
- ISS7 Change from baseline Mean (SD) [13]: −12.83 (7.49)
- ISS7 Change from baseline Median [13]: −14.50
- ISS7 Mean (SD) [13]: 4.17 (6.88)
- ISS7 Median [13]: 2.00
- ISS7 Percent change from baseline Mean (SD) [13]: −75.50 (33.00) %
- ISS7 Percent change from baseline Median [13]: −88.10%
- ISS7 Change from baseline Mean (SD) [14]: −7.28 (5.95)
- ISS7 Change from baseline Median [14]: −8.08
- ISS7 Mean (SD) [14]: 8.21 (6.16)
- ISS7 Median [14]: 7.00
- ISS7 Percent change from baseline Mean (SD) [14]: −46.93 (37.51) %
- ISS7 Percent change from baseline Median [14]: −56.35%
- ISS7 Change from baseline Mean (SD) [15]: −10.40 (9.91)
- ISS7 Change from baseline Median [15]: −13.00
- ISS7 Mean (SD) [15]: 6.80 (8.56)
- ISS7 Median [15]: 2.00
- ISS7 Percent change from baseline Mean (SD) [15]: −57.33 (52.62) %
- ISS7 Percent change from baseline Median [15]: −86.67%
- ISS7 Change from baseline Mean (SD) [16]: −6.11 (5.15)
- ISS7 Change from baseline Median [16]: −5.20
- ISS7 Mean (SD) [16]: 10.68 (5.34)
- ISS7 Percent change from baseline Mean (SD) [16]: −36.22 (29.09) %
- ISS7 Percent change from baseline Median [16]: −37.78%
- ISS7 Change from baseline Mean (SD) [17]: −13.00 (NC)
- ISS7 Change from baseline Median [17]: −13.00
- ISS7 Mean (SD) [17]: 8.00 (NC)
- ISS7 Median [17]: 8.00
- ISS7 Percent change from baseline Mean (SD) [17]: −61.90 (NC) %
- ISS7 Percent change from baseline Median [17]: −61.90%
